How the values were obtained:
Assay type in all cases: functional, cell-based
HeLa = assay: Cytotoxicity against human HeLa cells assessed as cell survival after 48 hrs by MTT assay
[1] = Cytotoxicity against human MKN28 cells assessed as cell survival after 48 hrs by MTT assay; conditions: MKN-28, 48 h
B16 = assay: Cytotoxicity against mouse B16 cells assessed as cell survival after 48 hrs by MTT assay; conditions: B16, 48 h

COc1cccc2c1[nH]c1c3[n+](cc(OC)c12)[C@H](c1ncc(OC)c2c1[nH]c1ccccc12)CCC3
IC50 (HeLa): 5.75 µM | IC50 [1]: 6.3 µM | IC50 (B16): 10.8 µM

COc1cccc2c1[nH]c1c3[n+](cc(OC)c12)[C@@H](c1ncc(OC)c2c1[nH]c1ccccc12)CCC3
IC50 (HeLa): 10.5 µM | IC50 [1]: 12.3 µM | IC50 (B16): 15.4 µM

COc1cccc2c1[nH]c1c([C@@H]3CCCc4c5[nH]c6c(O)cccc6c5c(OC)c[n+]43)ncc(OC)c12
IC50 (HeLa): 4.03 µM | IC50 [1]: 4.91 µM | IC50 (B16): 9.34 µM

COc1cccc2c1[nH]c1c([C@H]3CCCc4c5[nH]c6c(O)cccc6c5c(OC)c[n+]43)ncc(OC)c12
IC50 (HeLa): 10.9 µM | IC50 [1]: 9.64 µM | IC50 (B16): 14.8 µM

O=c1[nH]cc(F)c(=O)[nH]1 [FLUOROURACIL]
IC50 (HeLa): 13.5 µM | IC50 [1]: 9.67 µM | IC50 (B16): 7.64 µM

Source: ChEMBL document CHEMBL3352562, “(±)-Quassidines I and J, two pairs of cytotoxic bis-β-carboline alkaloid enantiomers from Picrasma quassioides” (J Nat Prod, 2015)
